Patent US6511979B1, “Methods for treating conditions modulated by lactosylceramide” (Johns Hopkins University, priority 1998, dated 2003)
Entries after “also recorded” stand apart in the source; their conditions may differ.

How the values were obtained:
[1] = target: T1, GlcT-1 (Homo sapiens, UniProt Q16739); settings: reported in literature; cited from earlier work
T1 sequence (Q16739 1-394): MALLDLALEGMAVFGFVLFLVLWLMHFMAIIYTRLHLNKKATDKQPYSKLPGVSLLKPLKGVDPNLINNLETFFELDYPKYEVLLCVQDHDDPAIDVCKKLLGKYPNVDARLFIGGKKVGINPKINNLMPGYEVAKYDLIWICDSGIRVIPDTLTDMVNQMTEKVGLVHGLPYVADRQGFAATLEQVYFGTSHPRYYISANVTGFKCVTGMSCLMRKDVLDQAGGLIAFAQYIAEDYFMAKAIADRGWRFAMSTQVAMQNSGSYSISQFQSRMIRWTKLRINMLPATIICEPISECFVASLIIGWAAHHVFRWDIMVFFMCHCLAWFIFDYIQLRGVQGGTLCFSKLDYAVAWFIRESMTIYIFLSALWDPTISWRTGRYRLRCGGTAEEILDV

[2] = tested on: vascular cells; settings: reported in literature; cited from earlier work
[3] = tested on: GalT-2; test: GalT-2 activity assay (standard in vitro GalT-2 assay / GalT-2 enzyme assay); assay type: cell-based
From the text: Preferred in vitro detection assays according to the present invention involve one or more steps associated with LacCer-related pathways. Such assays include the following steps 1) through 4):
1) culturing a population of LacCer-responsive cells with LacCer;
2) adding a known or candidate GalT-2 enhancing compound to the cells;
3) measuring activity of a cell molecule or function in the LacCer-related pathway; and
4) determining the effect of the known or candidate GalT-2 enhancing compound on the cell, e.g., by measuring activity of the cell molecule or function. Typically, the cell function will be one or more of cell proliferation, cell adhesion or expression of specified surface proteins on the cells. Examples of cell molecules include LacCer-responsive enzymes as specified below.
That assay can effectively measure the capacity of the GalT-2 enhancing compound to promote GalT-2 activity. References herein to a “standard in vitro GalT-2 assay” or other similar phrase refers to the above protocol of steps 1) through 4) when the specified cell molecule measured in step 3) above is GalT-2. As described in more detail below, other in vitro assays of the invention measure specified cell molecules in the LacCer-related steps or pathways. The in vitro assays of the present invention can be conducted with nearly any population of cells responsive to LacCer as provided below. […]

[4] = tested on: LacCer-responsive cells; test: cell proliferation in LacCer-responsive cells; assay type: cell-based
Method: Preferably, the GalT-2 enhancing compound promotes cell proliferation by at least 10 to 25%, preferably at least about 50%, relative to a suitable control assay. In such an assay, between about 0.1 to 100 μM, preferably between about 1 to 50 μM of a desired GalT-2 enhancing compound is used. Exemplary cell proliferation assays include counting viable cells and monitoring activity of specified citric acid cycle enzymes such as lactate dehydrogenase. A preferred assay measures incorporation of one or more detectably-labeled nucleosides into DNA, e.g., by:
a) culturing suitable cells in medium and adding 1) a candidate GalT-2 enhancing compound and 2) a radiolabeled nucleoside such as ^3H-thymidine typically in an amount between about 0.1 to 100 μCi;
b) incubating the cells, e.g., for about 6-24 hours, and typically followed by washing; and
The measurement can be achieved by several methods including trichloroacetic acid (TCA) precipitation of labeled DNA on filters followed by scintillation counting. See e.g., Chatterjee, S., Biochem. Biophys. Res Comm. (1991) 181:554; Chatterjee, S. et al. (1982) Eur. J. Biochem. 120:435 for disclosure relating to this assay.
References herein to a “standard in vitro cell proliferation assay” or other similar phrase refer to an assay that includes the above steps a) through c). […]

[5] = tested on: LacCer-responsive cells; test: cell adhesion in LacCer-responsive cells; assay type: cell-based
Method: Preferably, the GalT-2 enhancing compound increases cell adhesion by at least 25%, preferably at least 50% or more relative to a suitable control assay. In such an assay, between about 0.1 to 100 μM, preferably between about 1 to 50 μM of a desired GalT-2 enhancing compound is used. For example, a preferred cell adhesion assay includes the following steps:
a) labeling a first population of immune cells, preferably certain leukocytes, with a detectable label which can be a chromatic, radioactive, luminescent (e.g., fluorescent, or phosphorescent), or enzymatic label capable of producing a detectable label, […]
References herein to a “standard in vitro cell adhesion assay” or other similar phrase refer to an assay that includes the above steps a) through c). The detection in step c) can be achieved by a variety of methods such as microscopy (by manually counting cells), particularly confocal microscopy and fluorescence-based photomicroscopy involving FACS; automated cell sorting techniques, immunological methods such as ELISA and RIA; and scintillation counting. […]
A preferred in vitro cell adhesion assay measures polymorphonuclear leukocytes (PMNs and/or monocytes) or platelets and increased endothelial cell adhesion before, during or after contact with a desired GalT-2 enhancing compound. […] Adhering cells are then quantitated by standard methods such as by use of a fluorescence plate reader. […]

## CCCCCCCCCC(=O)NC(CN1CCOCC1)C(O)c1ccccc1 [D-PDMP, 1-phenyl-2-decanolylamino-3-morpholino-1-propanol]
[1]
  effect on GlcT-1: inhibits GlcT-1
[2]
  effect on proliferation of vascular cells: reduces proliferation of vascular cells

## CCCCCCCCCC(=O)N[C@@H](CN1CCOCC1)C(O)c1ccccc1 (stereo partly drawn) [L-PDMP, L-1-phenyl-2-decanoylamino-3-morpholino-1-propanol]
[3]
  effect on GalT-2 activity: increase the activity of GalT-2; also recorded: effectively stimulating GalT-2
[4]
  effect on proliferation in LacCer-responsive cells: increasing proliferation
[5]
  effect on adhesion in LacCer-responsive cells: increasing proliferation and adhesion
